Among the data in PMC3504386 (Chemmedchem, 2010) are IC50 values, retold here.

The target in the assay is T1, CTP synthetase (CTPS) (Trypanosoma brucei, UniProt Q4GZ95).
T1 construct: gene TB927.1.1240
Description: coupled spectrophotometric enzyme assay (pyruvate kinase/lactate dehydrogenase), […] min pre-incubation on ice. In kind it is biochemical.

SMILES strings stand for the structures.

T1 sequence (Q4GZ95 entry or part of it): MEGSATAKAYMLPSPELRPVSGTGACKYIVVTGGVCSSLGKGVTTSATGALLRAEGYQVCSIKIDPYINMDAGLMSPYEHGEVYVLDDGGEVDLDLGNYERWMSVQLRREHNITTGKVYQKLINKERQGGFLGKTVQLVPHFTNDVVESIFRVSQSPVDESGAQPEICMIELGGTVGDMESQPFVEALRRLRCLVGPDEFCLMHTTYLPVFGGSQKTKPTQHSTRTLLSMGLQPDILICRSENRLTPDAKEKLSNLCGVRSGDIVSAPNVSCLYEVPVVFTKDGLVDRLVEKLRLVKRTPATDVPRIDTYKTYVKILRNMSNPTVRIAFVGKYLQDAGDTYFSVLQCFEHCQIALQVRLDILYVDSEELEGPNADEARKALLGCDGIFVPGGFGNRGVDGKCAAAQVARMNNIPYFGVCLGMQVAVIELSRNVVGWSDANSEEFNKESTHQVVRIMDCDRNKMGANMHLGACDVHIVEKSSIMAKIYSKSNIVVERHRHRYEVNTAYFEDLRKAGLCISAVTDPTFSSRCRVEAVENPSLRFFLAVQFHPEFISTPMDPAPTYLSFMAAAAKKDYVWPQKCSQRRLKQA

Compound `N[C@H](C(=O)O)[C@@H]1CC(Cl)=NO1` [compound 1, Acivicin] yielded an IC50 of 320 ± 25 nM.

Take `N[C@H](C(=O)O)[C@@H]1CC(Br)=NO1` [compound 2, (αS,5S)-α-amino-3-bromo-4,5-dihydroisoxazol-5-yl acetic acid]: the midpoint of inhibition, the IC50, lay at 98 ± 10 nM. Against the preceding compound, the IC50 is about 3.3-fold lower.

Broadly, the IC50 is the concentration needed to halve the response being measured. The low end stands for greater potency, the high end for weaker potency.
